Patent publication US9226942B2, “Expanding hematopoietic stem cells” (priority 2010, dated 2016)

Key:
VentX = experiment: Quantitative (RT-)PCR of VentX expression in CD34+ cells; assay type: cell-based, human
Text: Bone marrow (BW) samples were obtained from discarded femoral head tissue after hip replacement surgery from Brigham and Women's Hospital, with institutional IRB approval. After Ficoll separation of mononuclear cells, CD34+ cells were enriched using magnetically activated cell sorting CD34^+ progenitor kit (Miltenyi Biotec). The purity of the BW CD34+ cells was over 95%, as assessed by flow cytometry as described in Rizo et al., 2008.
Total RNA was isolated by the TRIzol method, and same amount of RNA was used for first-strand cDNA synthesis with SuperSript First-Strand Synthesis System (Invitrogen) according to the manufacturer's protocol. To determine VentX mRNA level, the cDNA was then used for real-time PCR of VentX with primers: 5′-CCGTCAGCATCAAGGAGG-3′ (SEQ ID NO: 19) and 5′-CTGGACCTCTGAGAGCTGC-3′ (SEQ ID NO: 20). Real-time PCR was also performed with SYBR Green on a LightCycler® 480 system (480 Real-Time PCR System; Roche).
Briefly, the lentiviral vector pHAGE-CMV-eGFPW that expresses a shRNA targeting VentX (pHAGE-shVentX) was used for the transduction of bone marrow CD34+ cells. This lentiviral vector contains an internal ribosome entry site (IRES) that allows simultaneous expression of GFP to monitor transduction rate or for cell sorting. The corresponding DNA sequence of VentX shRNA is SEQ ID NO: 12 or 14. […]

human CD34+ cells = experiment: SR1-mediated expansion of human CD34+ cells; assay type: cell-based
BW CD34+ cells = experiment: Cytokine supplemented stroma-free liquid culture of CD34+ cells (cell counts, FACS); assay type: cell-based, human
CD34+ cells = experiment: In vitro colony-forming cell (CFC) assay; assay type: cell-based, human
Procedure: Assays for in vitro colony-forming cells (CFCs) were performed by plating sorted GFP positive CD34+ cells (1×10^4 per dish) in triplicates in complete methylcellulose medium (Methocult G F, H4434; Stem Cell Technologies), which contains a mixture of recombinant human cytokines (SCF, IL-3, GM-CSF, and erythropoietin). Colonies were counted after 14 days of incubation at 37° C. and classified according to standard criteria.
Human BW CD34+ cells were obtained as described in Example 1. These cells were transfected with pCS2-GFP or pCS2-GFPVentX plasmid using the Human CD34+ cell Nucleofector Kit (Lonza) as described above. GFP-positive cells were sorted by FACSAria high-speed sorter after transfected for 24 hours.

[1] = colonies counted after 14 days, vs GFP control

With `CC(C)n1cnc2c(NCCc3ccc(O)cc3)nc(-c3csc4ccccc34)nc21` [SR1, StemRegenin 1, reference compound] the “expression of VentX in the CD34+ cells” value (VentX) was “inhibited” and the “expansion of CD34+ cells” value (human CD34+ cells) was “increased”.

In the case of “siVentX: short oligonucleotides targeting VentX, siRNA SEQ ID NO: 5 (UUCAGAAUCGCCGCAUGAAACACAAACGG) (listed as RNA, chemistry not given here)”, the “knockdown of VentX in CD34+ cells” value (VentX; quantitative PCR / RT-PCR) is reported as roughly 70%, the “expansion of HSCs in comparison with siGFP-transfected cells” value (BW CD34+ cells; 2 weeks culture) is reported as roughly 2 fold and the “percentage of CD34+ cells” value (BW CD34+ cells; siRNA-transfected cells) is reported as “an increase”. For the same compound, the “increase in total number of progeny cells” value (CD34+ cells; based on the CFC assay) was roughly 2 fold, the “increase in formation of BFU-E/CFU-E colonies” value (CD34+ cells; [1]) was roughly 2 fold and the “increase in formation of CFU-GM colonies” value (CD34+ cells; [1]) was roughly 2 fold.
